Drawing on ChEMBL document CHEMBL2074094 (Arch Biochem Biophys, 1998), this text covers Activity for two molecules.

Data set [1] addresses ATP-dependent translocase ABCB1 (Homo sapiens, UniProt P08183). Nature of the data set: TP_TRANSPORTER: transepithelial transport (basal to apical) in MDR1-expressing LLC-PK1 cells. It is filed as functional, cell-based. The settings on record: pig.
In data set [2] the target is T1, ATP-dependent translocase ABCB1 (Mus musculus, UniProt P21447). In words: TP_TRANSPORTER: tissue concentration in mdr1a(-/-) mouse. In kind it is functional, organism-based. The settings on record: in vivo.
Data set [3] addresses T1, ATP-dependent translocase ABCB1. Nature of the data set: TP_TRANSPORTER: transepithelial transport (basal to apical) in mdr1a-expressing LLC-PK1 cell. The following applies: pig. In kind it is functional, cell-based.

T1 sequence (P21447 whole entry): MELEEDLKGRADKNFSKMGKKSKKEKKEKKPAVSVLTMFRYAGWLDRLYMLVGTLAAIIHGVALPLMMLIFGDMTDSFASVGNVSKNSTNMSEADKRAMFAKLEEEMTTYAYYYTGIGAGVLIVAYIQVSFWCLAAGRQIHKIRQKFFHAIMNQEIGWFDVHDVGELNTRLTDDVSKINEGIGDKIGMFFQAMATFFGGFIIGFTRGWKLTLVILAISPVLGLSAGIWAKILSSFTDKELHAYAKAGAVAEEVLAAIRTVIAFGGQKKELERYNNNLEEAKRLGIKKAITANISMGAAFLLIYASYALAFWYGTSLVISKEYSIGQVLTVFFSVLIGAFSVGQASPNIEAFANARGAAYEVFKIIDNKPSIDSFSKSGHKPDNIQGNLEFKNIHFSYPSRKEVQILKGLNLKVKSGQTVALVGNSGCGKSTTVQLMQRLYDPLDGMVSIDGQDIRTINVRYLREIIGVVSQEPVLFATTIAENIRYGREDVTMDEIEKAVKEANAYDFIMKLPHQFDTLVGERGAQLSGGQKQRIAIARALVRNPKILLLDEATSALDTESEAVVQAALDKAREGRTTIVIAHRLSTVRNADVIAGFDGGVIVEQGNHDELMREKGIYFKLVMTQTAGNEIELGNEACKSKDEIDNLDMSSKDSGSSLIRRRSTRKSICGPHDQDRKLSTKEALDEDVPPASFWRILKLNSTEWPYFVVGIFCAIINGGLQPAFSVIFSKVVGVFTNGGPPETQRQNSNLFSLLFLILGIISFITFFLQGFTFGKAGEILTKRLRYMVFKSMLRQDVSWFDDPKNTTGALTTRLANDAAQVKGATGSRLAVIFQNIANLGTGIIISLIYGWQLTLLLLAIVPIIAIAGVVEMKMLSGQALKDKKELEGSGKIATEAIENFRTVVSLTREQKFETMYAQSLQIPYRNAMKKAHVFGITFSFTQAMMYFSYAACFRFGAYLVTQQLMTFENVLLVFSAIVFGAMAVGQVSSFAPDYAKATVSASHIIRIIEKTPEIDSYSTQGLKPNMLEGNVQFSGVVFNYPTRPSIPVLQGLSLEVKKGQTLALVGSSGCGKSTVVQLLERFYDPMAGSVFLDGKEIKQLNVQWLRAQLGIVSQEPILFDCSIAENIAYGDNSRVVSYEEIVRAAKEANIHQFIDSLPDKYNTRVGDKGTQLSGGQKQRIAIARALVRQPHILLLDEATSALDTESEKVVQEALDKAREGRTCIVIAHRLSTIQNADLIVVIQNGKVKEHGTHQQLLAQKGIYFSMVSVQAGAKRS
Chain of ATP-dependent translocase ABCB1 (Homo sapiens, UniProt P08183) (P08183 whole entry): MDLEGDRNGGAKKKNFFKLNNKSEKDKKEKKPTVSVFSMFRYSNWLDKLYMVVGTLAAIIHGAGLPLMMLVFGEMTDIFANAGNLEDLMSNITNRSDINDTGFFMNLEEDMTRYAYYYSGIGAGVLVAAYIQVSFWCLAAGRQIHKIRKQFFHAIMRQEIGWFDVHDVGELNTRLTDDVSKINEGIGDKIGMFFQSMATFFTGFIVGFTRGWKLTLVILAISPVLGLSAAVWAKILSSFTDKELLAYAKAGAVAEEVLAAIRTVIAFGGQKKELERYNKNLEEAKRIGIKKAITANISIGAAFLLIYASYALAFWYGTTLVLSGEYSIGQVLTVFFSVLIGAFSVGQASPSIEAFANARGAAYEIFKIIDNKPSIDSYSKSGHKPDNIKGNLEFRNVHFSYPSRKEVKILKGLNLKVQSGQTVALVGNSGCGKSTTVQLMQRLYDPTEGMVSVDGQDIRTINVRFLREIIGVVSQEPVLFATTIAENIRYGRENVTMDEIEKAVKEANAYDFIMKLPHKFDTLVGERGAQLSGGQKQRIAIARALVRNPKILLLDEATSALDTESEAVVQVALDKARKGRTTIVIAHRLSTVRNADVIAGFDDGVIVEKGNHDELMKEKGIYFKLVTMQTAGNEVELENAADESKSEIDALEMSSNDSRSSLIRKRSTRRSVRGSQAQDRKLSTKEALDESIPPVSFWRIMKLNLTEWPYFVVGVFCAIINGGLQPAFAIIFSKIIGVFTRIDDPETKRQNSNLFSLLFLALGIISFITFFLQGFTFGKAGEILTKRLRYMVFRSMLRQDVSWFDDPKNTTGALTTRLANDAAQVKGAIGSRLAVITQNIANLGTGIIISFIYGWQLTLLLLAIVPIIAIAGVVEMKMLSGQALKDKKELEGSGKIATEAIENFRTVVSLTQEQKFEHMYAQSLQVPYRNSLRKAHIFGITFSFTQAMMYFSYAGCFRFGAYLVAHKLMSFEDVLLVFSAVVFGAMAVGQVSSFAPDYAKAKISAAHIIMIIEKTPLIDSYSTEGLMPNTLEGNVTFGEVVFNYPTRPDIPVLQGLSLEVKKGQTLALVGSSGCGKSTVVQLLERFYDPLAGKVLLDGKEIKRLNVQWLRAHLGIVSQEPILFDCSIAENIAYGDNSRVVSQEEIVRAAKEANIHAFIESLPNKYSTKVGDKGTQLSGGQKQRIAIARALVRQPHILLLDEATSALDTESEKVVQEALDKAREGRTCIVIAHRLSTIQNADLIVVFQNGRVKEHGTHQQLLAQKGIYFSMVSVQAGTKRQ

As for `CC1=C(/C=C/C(C)=C/C=C/C(C)=C/C(=O)O)C(C)(C)CCC1` [TRETINOIN], the Activity entry in data set [1], in data set [2] and in data set [3] was “is not a substrate [-]” in each case.
Regarding `c1ccc2c(c1)cc1ccc3cccc4ccc2c1c34`, the Activity result in data set [1] and in data set [3] was “is not a substrate [-]” each time.
